The subject of assay [1] is E. coli 25922 IMP. The assay can be described thus: Minimum Inhibitory Concentration (MIC) determination, E. coli 25922 IMP. It counts as cell-based. To be noted: LB broth, 5×10^5 CFU/ml, 37° C., 18 hours, scored by eye. The protocol: (§1) MICs were determined by performing two-fold serial dilutions of peptides in LB broth to a final volume of 0.1 ml in round-bottom 96-well assay plates (Corning Life Sciences No 3788). Peptides were initially resuspended in 100% DMSO to 10 mM and subsequently diluted in LB medium to the appropriate concentration. Each well was inoculated with 5×10^5 CFU/ml of the screening stain and incubated at 37° C. without agitation for 18 hours. Plates were scored by eye, and the lowest compound concentration preventing visible growth was determined to be the MIC.

The test system of assay [2] is E. coli BW25113. The assay can be described thus: Minimum Inhibitory Concentration (MIC) determination, E. coli BW25113. It is filed as cell-based. On the set-up: unit not given here. The settings on record: LB broth, 5×10^5 CFU/ml, 37° C., 18 hours, scored by eye. The method, then: as §1

SMILES strings stand for the structures. Bridge positions count the residues as written; N and C are the ends. Square brackets hold non-standard residues; d marks the D form. Peptide text beside a SMILES is read from it. Phe(4-Cl) = N[C@@H](Cc1ccc(Cl)cc1)C(=O)O; 1Nal = N[C@@H](Cc1cccc2ccccc12)C(=O)O; His(π-Me) = Cn1cncc1C[C@H](N)C(=O)O; NMeF = CN[C@@H](Cc1ccccc1)C(=O)O; Abu = CC[C@H](N)C(=O)O; Aib = CC(C)(N)C(=O)O

For `CC[C@H](C)[C@@H]1NC(=O)[C@H]([C@@H](C)O)NC(=O)[C@H](Cc2cncn2C)NC(=O)[C@H](Cc2ccccc2)NC(=O)CSC[C@@H](C(=O)NCC(N)=O)NC(=O)[C@H](Cc2ccccc2)NC(=O)[C@H](Cc2c[nH]c3ccccc23)NC(=O)[C@H](Cc2ccc(O)cc2)NC(=O)[C@H](Cc2cncn2C)NC(=O)[C@H](Cc2ccccc2)NC(=O)C(C)(C)NC(=O)[C@H](CCCNC(=N)N)NC(=O)[C@H](CCCCN)NC(=O)[C@H](CCCNC(=N)N)NC1=O` [Compound 54, trifluoroacetic acid] ({CH2CO}-F[His(π-Me)]TIRKR[Aib]F[His(π-Me)]YWFCG-NH2; thioether N-14), in assay [1], the “MIC E. coli 25922 IMP WUXI::MIC” value was determined as 0.5. In addition, the “MIC E. coli BW25113 WUXI::MIC” value in assay [2] was 8.
As for `CC[C@@H]1NC(=O)[C@H](Cc2ccccc2)NC(=O)CSC[C@@H](C(=O)NCC(N)=O)NC(=O)[C@H](Cc2cncn2C)NC(=O)[C@H](CC)NC(=O)[C@H](Cc2c[nH]cn2)NC(=O)[C@H](Cc2ccccc2)N(C)C(=O)[C@H](CCCNC(=N)N)NC(=O)[C@H](CO)NC(=O)CNC(=O)[C@H](Cc2c[nH]cn2)NC(=O)[C@H](Cc2cccc3ccccc23)NC1=O` [Compound 5, (3R,6S,9S,12S,15S,18S,21S,27S,30S, 33S,36S)-N-(2-amino-2-oxo-ethyl)-15,36-dibenzyl-9,33-diethyl-18-(3-guanidinopropyl)-21-(hydroxymethyl)-12,27-bis(1H-imidazol-4-ylmethyl)-16-methyl-6-[(3-methylimidazol-4-yl)methyl]-30-(1-naphthylmethyl)-5,8,11,14,17,20,23,26,29,32,35,38-dodecaoxo-1-thia-4,7,10,13,16,19,22,25,28,31,34,37-dodecazacyclononatriacontane-3-carboxamide] ({CH2CO}-F[Abu][1Nal]HGSR[NMeF]H[Abu][His(π-Me)]CG-NH2; thioether N-12), in assay [1], the “MIC E. coli 25922 IMP WUXI::MIC” value worked out at 0.016. In addition, the “MIC E. coli BW25113 WUXI::MIC” value in assay [2] is reported as above 32.
In the case of `CC[C@@H]1NC(=O)[C@H](Cc2ccccc2)NC(=O)CSC[C@@H](C(=O)NCC(N)=O)NC(=O)[C@H](Cc2cncn2C)NC(=O)[C@H](CCCNC(=N)N)NC(=O)[C@H](Cc2cnc[nH]2)NC(=O)[C@H](Cc2ccccc2)N(C)C(=O)[C@H](CCCNC(=N)N)NC(=O)[C@H](CO)NC(=O)CN(C)C(=O)[C@H](Cc2cnc[nH]2)NC(=O)[C@H](Cc2c[nH]c3ccccc23)NC1=O` (racemic) [Compound 11, rac-(3R,6S,9S,12S,15S,18S,21S,27S,30S, 33S,36S)-N-(2-amino-2-oxo-ethyl)-15,36-dibenzyl-33-ethyl-9,18-bis(3-guanidinopropyl)-21-(hydroxymethyl)-12,27-bis(1H-imidazol-5-ylmethyl)-30-(1H-indol-3-ylmethyl)-16,25-dimethyl-6-[(3-methylimidazol-4-yl)methyl]-5,8,11,14,17,20,23,26,29,32,35,38-dodecaoxo-1-thia-4,7,10,13,16,19,22,25,28,31,34,37-dodecazacyclononatriacontane-3-carboxamide], the “MIC E. coli 25922 IMP WUXI::MIC” value in assay [1] stood at 1.9074E−06. Moreover, the “MIC E. coli BW25113 WUXI::MIC” value in assay [2] is on record as 8.
As to `CC[C@H](C)[C@@H]1NC(=O)[C@H]([C@@H](C)O)NC(=O)[C@H](Cc2cncn2C)NC(=O)[C@H](Cc2ccccc2)NC(=O)CSC[C@@H](C(=O)NCC(N)=O)NC(=O)[C@H](Cc2ccc(O)cc2)NC(=O)[C@H](Cc2ccc(Cl)cc2)NC(=O)[C@H](Cc2ccc(O)cc2)NC(=O)[C@H](CCCNC(=N)N)NC(=O)[C@H](Cc2ccccc2)NC(=O)C(C)(C)NC(=O)[C@H](CCCNC(=N)N)NC(=O)[C@H](CCCCN)NC(=O)[C@H](CCCNC(=N)N)NC1=O` [Compound 58] ({CH2CO}-F[His(π-Me)]TIRKR[Aib]FRY[Phe(4-Cl)]YCG-NH2; thioether N-14), the “MIC E. coli 25922 IMP WUXI::MIC” value in assay [1] is 0.25. In addition, the “MIC E. coli BW25113 WUXI::MIC” value in assay [2] was 2.
Take `CC[C@@H]1NC(=O)[C@H](Cc2c[nH]cn2)NC(=O)[C@H](Cc2ccccc2)N(C)C(=O)[C@H](CC)NC(=O)[C@H](CO)NC(=O)CNC(=O)[C@H](Cc2c[nH]cn2)NC(=O)[C@H](Cc2cccc3ccccc23)NC(=O)[C@H](C(C)C)NC(=O)[C@H](Cc2ccccc2)NC(=O)CSC[C@@H](C(=O)NCC(N)=O)NC(=O)[C@H](Cc2cncn2C)NC1=O` [Compound 8, (3R,6S,9S,12S,15S,18S,21S,27S,30S, 33S,36S)-N-(2-amino-2-oxo-ethyl)-15,36-dibenzyl-9,18-diethyl-21-(hydroxymethyl)-12,27-bis(1H-imidazol-4-ylmethyl)-33-isopropyl-16-methyl-6-[(3-methylimidazol-4-yl)methyl]-30-(1-naphthylmethyl)-5,8,11,14,17,20,23,26,29,32,35,38-dodecaoxo-1-thia-4,7,10,13,16,19,22,25,28,31,34,37-dodecazacyclononatriacontane-3-carboxamide] ({CH2CO}-FV[1Nal]HGS[Abu][NMeF]H[Abu][His(π-Me)]CG-NH2; thioether N-12): in assay [1], the “MIC E. coli 25922 IMP WUXI::MIC” value was determined as 4. For the same compound, the “MIC E. coli BW25113 WUXI::MIC” value in assay [2] is recorded as above 32.
As to `CC[C@H](C)[C@@H]1NC(=O)[C@H]([C@@H](C)O)NC(=O)[C@H](Cc2cncn2C)NC(=O)[C@H](Cc2ccccc2)NC(=O)CSC[C@@H](C(=O)NCC(N)=O)NC(=O)[C@H](Cc2ccc(O)cc2)NC(=O)[C@H](Cc2c[nH]c3ccccc23)NC(=O)[C@H](Cc2ccc(O)cc2)NC(=O)[C@H](Cc2cncn2C)NC(=O)[C@H](Cc2ccccc2)NC(=O)C(C)(C)NC(=O)[C@H](CCCNC(=N)N)NC(=O)[C@H](CCCNC(=N)N)NC(=O)[C@H](CCCNC(=N)N)NC1=O` [Compound 53] ({CH2CO}-F[His(π-Me)]TIRRR[Aib]F[His(π-Me)]YWYCG-NH2; thioether N-14), the “MIC E. coli 25922 IMP WUXI::MIC” value in assay [1] was 0.25. For the same compound, in assay [2], the “MIC E. coli BW25113 WUXI::MIC” value worked out at 4.
The matching figures for `CC[C@@H]1NC(=O)[C@H](Cc2ccccc2)NC(=O)CSC[C@@H](C(=O)NCC(N)=O)NC(=O)[C@H](Cc2cncn2C)NC(=O)[C@H](CCCNC(=N)N)NC(=O)[C@H](Cc2cnc[nH]2)NC(=O)[C@H](Cc2ccc(O)cc2)N(C)C(=O)[C@H](CCCNC(=N)N)NC(=O)[C@H](CO)NC(=O)CN(C)C(=O)[C@H](Cc2cnc[nH]2)NC(=O)[C@H](Cc2c[nH]c3ccccc23)NC1=O` (racemic) [Compound 13]: 0.00 and 4.
As for `CC[C@@H]1NC(=O)[C@H](Cc2ccccc2)NC(=O)CSC[C@@H](C(=O)NCC(N)=O)NC(=O)[C@H](Cc2cncn2C)NC(=O)[C@H](CC)NC(=O)[C@H](Cc2c[nH]cn2)NC(=O)[C@H](Cc2ccccc2)N(C)C(=O)[C@H](CCCNC(=N)N)NC(=O)[C@H](CO)NC(=O)CNC(=O)[C@H](Cc2c[nH]cn2)NC(=O)[C@H](Cc2c[nH]c3ccccc23)NC1=O` [Compound 4, (3R,6S,9S,12S,15S,18S,21S,27S,30S, 33S,36S)-N-(2-amino-2-oxo-ethyl)-15,36-dibenzyl-9,33-diethyl-18-(3-guanidinopropyl)-21-(hydroxymethyl)-12,27-bis(1H-imidazol-4-ylmethyl)-30-(1H-indol-3-ylmethyl)-16-methyl-6-[(3-methylimidazol-4-yl)methyl]-5,8,11,14,17,20,23,26,29,32,35,38-dodecaoxo-1-thia-4,7,10,13,16,19,22,25,28,31,34,37-dodecazacyclononatriacontane-3-carboxamide] ({CH2CO}-F[Abu]WHGSR[NMeF]H[Abu][His(π-Me)]CG-NH2; thioether N-12), in assay [1], the “MIC E. coli 25922 IMP WUXI::MIC” value is given as 0.128. Also, the “MIC E. coli BW25113 WUXI::MIC” value in assay [2] is listed as above 32.

Values taken from patent publication US20240279283A1, “CYCLIC PEPTIDE ANTIBIOTICS” (priority 2021, published 2024).
